Data on 31 molecules can be found in patent US9617242B2, “Histone demethylase inhibitors” (priority 2012, dated 2017).

One assay deals with KDM5A/B. In words: In vitro cell-based assay: tri-methyl H3K4 immuno-blotting in ZR-75-1 breast cancer cells. The protocol:
This quantitative immuno-blotting assay measures the amount tri-methylated histone H3 at amino acid Lysine number 4, a specific substrate […] of the direct enzymatic activity of the histone demethylases KDM5A and KDM5B from extracts of the ZR-75-1 breast cancer cell line.
This assay is a fluorometric immunoassay for the quantification of tri-methyl H3K4 extracted from cells treated with test compound and is used as a measure of the cellular inhibition of KDM5A/B.
Extracts were prepared containing all of the cellular histone material using detergent based lysis and sonication methods. These lysates were subsequently normalized for total protein content using a colorimetric bicinchonic acid assay (MicroBCA Pierce/Thermo Scientific). Normalized cell extracts were then subjected to typical immuno-blotting procedures using NuPage reagents (Life Technologies). Electrophoretically separated histones were then transferred and immobilized using polyvinylidene difluoride membrane (Immobilon-FL Millipore). The amount of tri-methylated lysine 4 of histone H3 was detected using an antibody specific to the tri-methylated state (Cell Signaling Technologies) and quantified on an infrared imager using a densitometry software package (Odyssey CLx, Image Studio, Li-Cor). This background subtracted densitometry value was reported as a ration of the GAPDH amount for that sample and then calculated as a percent of the DMSO treated sample. The software package XL-fit (IDBS) was then used to calculate a relative IC50 value for the dilution series of a given test compound according to the equation: fit=(D+((Vmax*(x^n))/((x^n)+(Km^n)))).

The next assay concerns the target Jarid1A (Homo sapiens (Human), UniProt P29375). Put plainly: Jarid1A in vitro enzyme inhibition assay (TR-FRET). The class given is biochemical. Background: Time-resolved FRET reads energy transfer from a long-lived donor to a nearby acceptor.
The target of a further assay is Jarid1B (Homo sapiens (Human), UniProt Q9UGL1). In words: Jarid1B in vitro enzyme inhibition assay (TR-FRET). The class given is biochemical.
Setting [1] is: 72 hours, read-out: Cellular IC50.
Setting [2] is: read-out: Cellular IC50, 72 hours.

Counter-ions that a name gives are not always drawn. Like-named read-outs stand apart in the source and are kept apart here.

Jarid1A, sequence (P29375 1-1090): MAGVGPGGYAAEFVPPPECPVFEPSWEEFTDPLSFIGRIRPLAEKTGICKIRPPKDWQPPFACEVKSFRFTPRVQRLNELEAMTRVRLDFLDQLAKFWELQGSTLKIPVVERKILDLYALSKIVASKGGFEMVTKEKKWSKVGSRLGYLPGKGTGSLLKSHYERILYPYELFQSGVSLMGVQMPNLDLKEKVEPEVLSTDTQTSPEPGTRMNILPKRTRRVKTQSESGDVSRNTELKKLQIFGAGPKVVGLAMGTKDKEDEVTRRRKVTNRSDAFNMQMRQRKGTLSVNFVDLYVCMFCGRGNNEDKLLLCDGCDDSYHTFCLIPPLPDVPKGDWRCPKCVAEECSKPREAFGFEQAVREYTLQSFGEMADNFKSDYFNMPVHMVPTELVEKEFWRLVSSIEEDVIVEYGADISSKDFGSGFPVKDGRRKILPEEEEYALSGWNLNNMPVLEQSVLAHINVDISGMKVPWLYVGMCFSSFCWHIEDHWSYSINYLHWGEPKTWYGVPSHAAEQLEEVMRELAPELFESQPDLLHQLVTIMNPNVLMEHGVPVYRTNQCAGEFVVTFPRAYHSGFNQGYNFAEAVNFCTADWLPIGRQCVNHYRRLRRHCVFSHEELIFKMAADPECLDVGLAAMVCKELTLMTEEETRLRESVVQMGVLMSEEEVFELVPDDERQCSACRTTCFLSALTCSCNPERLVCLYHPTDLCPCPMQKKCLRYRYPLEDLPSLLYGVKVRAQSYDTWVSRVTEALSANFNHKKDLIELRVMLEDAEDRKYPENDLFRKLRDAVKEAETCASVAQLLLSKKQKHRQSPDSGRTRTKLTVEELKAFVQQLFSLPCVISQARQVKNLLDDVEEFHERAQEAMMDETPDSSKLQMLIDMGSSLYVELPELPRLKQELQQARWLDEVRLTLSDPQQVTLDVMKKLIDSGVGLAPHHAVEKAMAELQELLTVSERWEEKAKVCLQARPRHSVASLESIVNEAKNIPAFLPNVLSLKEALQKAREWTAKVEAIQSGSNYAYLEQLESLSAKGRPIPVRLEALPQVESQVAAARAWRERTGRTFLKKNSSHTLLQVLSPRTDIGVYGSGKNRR
Jarid1B, sequence (Q9UGL1 2-751): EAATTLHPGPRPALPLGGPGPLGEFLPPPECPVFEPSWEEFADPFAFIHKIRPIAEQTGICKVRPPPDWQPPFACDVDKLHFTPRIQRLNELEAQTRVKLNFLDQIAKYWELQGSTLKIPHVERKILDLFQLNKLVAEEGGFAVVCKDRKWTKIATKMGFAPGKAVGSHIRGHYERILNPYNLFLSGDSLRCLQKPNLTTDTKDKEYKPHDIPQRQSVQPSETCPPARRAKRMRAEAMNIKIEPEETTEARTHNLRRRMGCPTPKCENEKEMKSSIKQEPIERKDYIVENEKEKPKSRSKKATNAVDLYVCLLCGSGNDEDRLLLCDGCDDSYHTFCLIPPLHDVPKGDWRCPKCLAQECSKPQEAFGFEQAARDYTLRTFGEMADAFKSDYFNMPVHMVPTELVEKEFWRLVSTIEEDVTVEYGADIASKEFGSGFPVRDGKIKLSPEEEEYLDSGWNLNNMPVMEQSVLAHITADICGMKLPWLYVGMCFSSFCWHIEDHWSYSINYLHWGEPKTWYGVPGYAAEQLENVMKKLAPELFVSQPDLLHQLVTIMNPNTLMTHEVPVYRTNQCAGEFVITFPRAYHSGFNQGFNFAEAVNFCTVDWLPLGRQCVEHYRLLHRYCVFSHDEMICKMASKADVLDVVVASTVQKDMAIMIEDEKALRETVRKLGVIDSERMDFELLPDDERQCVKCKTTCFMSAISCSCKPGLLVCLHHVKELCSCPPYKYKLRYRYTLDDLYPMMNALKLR

What is called IC50 is the midpoint of a concentration-inhibition curve. As for `Cn1nc(Nc2cnccc2C(=O)O)c2cc(Cl)ccc21` [Example 4, 3-[(5-chloro-1-methyl-1H-indazol-3-yl)amino]pyridine-4-carboxylic acid], the IC50 in the assay on KDM5A/B (setting [1]) is 100 to 1000 nM; against Jarid1A, less than 100 nM; on Jarid1B it was less than 100 nM.

As for `Cc1ccc2c(Nc3cnccc3C(=O)O)nn(C)c2c1` [Example 5, 3-[(1,6-dimethyl-1H-indazol-3-yl)amino]pyridine-4-carboxylic acid], the IC50 with KDM5A/B (setting [1]) was 1000 to 10000 nM; against Jarid1A it was less than 100 nM; at Jarid1B, less than 100 nM.

With `Cn1nc(Nc2cnccc2C(=O)O)c2ccc(F)cc21` [Example 6, 3-[(6-fluoro-1-methyl-1H-indazol-3-yl)amino]pyridine-4-carboxylic acid], in the assay on KDM5A/B (setting [1]), the IC50 was 1000 to 10000 nM.

`COc1ccc2c(Nc3cnccc3C(=O)O)nn(C)c2c1` [Example 8, 3-[(6-methoxy-1-methyl-1H-indazol-3-yl)amino]pyridine-4-carboxylic acid]: the IC50 was 1000 to 10000 nM in the assay on KDM5A/B (setting [1]), less than 100 nM against Jarid1A and less than 100 nM on Jarid1B.

Take `CCCn1nc(Nc2cnccc2C(=O)O)c2ccccc21` [Example 9, 3-[(1-propyl-1H-indazol-3-yl)amino]pyridine-4-carboxylic acid]: the values for the IC50 with KDM5A/B (setting [1]), against Jarid1A and at Jarid1B were 100 to 1000 nM, less than 100 nM and less than 100 nM, respectively.

For `COCCn1nc(Nc2cnccc2C(=O)O)c2ccccc21` [Example 10, 3-{[1-(2-methoxyethyl)-1H-indazol-3-yl]amino}pyridine-4-carboxylic acid], the IC50 in the assay on KDM5A/B (setting [1]) is 1000 to 10000 nM; on Jarid1A, less than 100 nM; on Jarid1B it was less than 100 nM.

As to `Cc1ccc2c(c1)c(Nc1cnccc1C(=O)O)nn2C` [Example 12, 3-[(1,5-dimethyl-1H-indazol-3-yl)amino]pyridine-4-carboxylic acid], in the assay on KDM5A/B (setting [1]), the IC50 was in the range of 100 to 1000 nM.

As to `CCCn1nc(Nc2cnccc2C(=O)O)c2cc(F)ccc21` [Example 15, 3-[(5-fluoro-1-propyl-1H-indazol-3-yl)amino]pyridine-4-carboxylic acid], the IC50 in the assay with KDM5A/B (setting [1]) was 1000 to 10000 nM; against Jarid1A, less than 100 nM; against Jarid1B it was less than 100 nM.

In the case of `O=C(O)c1ccncc1Nc1nn(CC2CC2)c2ccc(F)cc12` [Example 16, 3-{[1-(cyclopropylmethyl)-5-fluoro-1H-indazol-3-yl]amino}pyridine-4-carboxylic acid], the figures for the IC50 with KDM5A/B (setting [1]), at Jarid1A and against Jarid1B were 1000 to 10000 nM, less than 100 nM and less than 100 nM, respectively.

`CCCCCn1nc(Nc2cnccc2C(=O)O)c2cc(F)ccc21` [Example 18, 3-[(5-fluoro-1-pentyl-1H-indazol-3-yl)amino]pyridine-4-carboxylic acid]: the IC50 in the assay on KDM5A/B (setting [1]) was 1000 to 10000 nM; at Jarid1A, less than 100 nM; against Jarid1B it was less than 100 nM.

With `O=C(O)c1ccncc1Nc1nn(CCc2ccccc2)c2ccc(F)cc12` [Example 19, 3-{[5-fluoro-1-(2-phenethyl)-1H-indazol-3-yl]amino}pyridine-4-carboxylic acid], the figures for the IC50 with KDM5A/B (setting [1]), at Jarid1A and on Jarid1B were more than 10000 nM, less than 100 nM and less than 100 nM, respectively.

On to `O=C(O)c1ccncc1Nc1nn(CC2CCCO2)c2ccc(F)cc12` (centres unmarked) [Example 21, 3-{[5-fluoro-1-(tetrahydrofuran-2-ylmethyl)-1H-indazol-3-yl]amino}pyridine-4-carboxylic acid], for which the IC50 in the assay with KDM5A/B (setting [1]) is 1000 to 10000 nM; at Jarid1A, less than 100 nM; against Jarid1B it was less than 100 nM.

Turning to `O=C(O)c1ccncc1Nc1nn(CC(F)(F)F)c2ccc(F)cc12` [Example 23, 3-{[5-fluoro-1-(2,2,2-trifluoroethyl)-1H-indazol-3-yl]amino}pyridine-4-carboxylic acid], the IC50 with KDM5A/B (setting [1]) was 1000 to 10000 nM; against Jarid1A it was less than 100 nM; at Jarid1B it was less than 100 nM.

Turning to `CC(C)Cn1nc(Nc2cnccc2C(=O)O)c2cc(F)ccc21` [Example 25, 3-{[5-fluoro-1-(2-methylpropyl)-1H-indazol-3-yl]amino}pyridine-4-carboxylic acid], the IC50 is 1000 to 10000 nM in the assay on KDM5A/B (setting [1]), less than 100 nM against Jarid1A and less than 100 nM against Jarid1B.

For `CCn1nc(Nc2cnccc2C(=O)O)c2cc(C)ccc21` [Example 36, 3-[(1-ethyl-5-methyl-1H-indazol-3-yl)amino]pyridine-4-carboxylic acid], the IC50 against Jarid1A and at Jarid1B was less than 100 nM throughout.

`CCCn1nc(Nc2cnccc2C(=O)O)c2cc(C)ccc21` [Example 38, 3-[(5-methyl-1-propyl-1H-indazol-3-yl)amino]pyridine-4-carboxylic acid]: the IC50 against Jarid1A and against Jarid1B was less than 100 nM in each case.

`Cc1ccc2c(c1)c(Nc1cnccc1C(=O)O)nn2CCC(F)(F)F` [Example 39, 3-{[5-methyl-1-(3,3,3-trifluoropropyl)-1H-indazol-3-yl]amino}pyridine-4-carboxylic acid]: the IC50 on Jarid1A and against Jarid1B was less than 100 nM in each case.

On to `CNCCCCCn1nc(Nc2cnccc2C(=O)O)c2cc(F)ccc21` [Example 46, 3-({5-fluoro-1-[5-(methylamino)pentyl]-1H-indazol-3-yl}amino)pyridine-4-carboxylic acid, trifluoroacetic acid salt], for which the IC50 with KDM5A/B (setting [2]) was more than 10000 nM.

Consider `CN(C)CC#CCn1nc(Nc2cnccc2C(=O)O)c2cc(F)ccc21` [Example 49, 3-({1-[4-(dimethylamino)but-2-yn-1-yl]-5-fluoro-1H-indazol-3-yl}amino)pyridine-4-carboxylic acid, trifluoroacetic acid salt], for which, in the assay on KDM5A/B (setting [2]), the IC50 is more than 10000 nM.

`CCCn1cc(Nc2cnccc2C(=O)O)c2cc(F)ccc21` [Example 57, 3-[(5-fluoro-1-propyl-1H-indol-3-yl)amino]pyridine-4-carboxylic acid]: the IC50 against Jarid1A and against Jarid1B was less than 100 nM in each case.

For `O=C(O)c1ccncc1Nc1nn([C@H]2CCNC2)c2ccc(F)cc12` [Example 60, 3-({5-fluoro-1-[(3S)-pyrrolidin-3-yl]-1H-indazol-3-yl}amino)pyridine-4-carboxylic acid], the IC50 in the assay with KDM5A/B (setting [1]) lay within 1000 to 10000 nM.

As to `O=C(O)c1ccncc1Nc1nn([C@@H]2CCNC2)c2ccc(F)cc12` [Example 61, 3-({5-fluoro-1-[(3R)-pyrrolidin-3-yl]-1H-indazol-3-yl}amino)pyridine-4-carboxylic], in the assay on KDM5A/B (setting [1]), the IC50 lay in the range of 1000 to 10000 nM.

For the molecule `O=C(O)c1ccncc1Nc1nn(C2CCOCC2)c2ccc(F)cc12` [Example 62, 3-{[5-fluoro-1-(tetrahydro-2H-pyran-4-yl)-1H-indazol-3-yl]amino}pyridine-4-carboxylic acid], the IC50 at Jarid1A and against Jarid1B was less than 100 nM each time.

Regarding `O=C(O)c1ccncc1Nc1nn(C2CCCOC2)c2ccc(F)cc12` (centres unmarked) [Example 63, 3-{[5-fluoro-1-(tetrahydro-2H-pyran-3-yl)-1H-indazol-3-yl]amino}pyridine-4-carboxylic acid], the IC50 against Jarid1A and on Jarid1B was less than 100 nM each time.

In the case of `O=C(O)c1ccncc1Nc1cn(C2CCOC2)c2ccc(F)cc12` (centres unmarked) [Example 68, 3-{[5-fluoro-1-(tetrahydrofuran-3-yl)-1H-indol-3-yl]amino}pyridine-4-carboxylic acid], the IC50 against Jarid1A and against Jarid1B was less than 100 nM each time.

As for `N#CNC(=O)c1ccncc1Nc1nn([C@H]2CCOC2)c2ccc(F)cc12` [Example 70, N-cyano-3-({5-fluoro-1-[(3S)-tetrahydrofuran-3-yl]-1H-indazol-3-yl}amino)pyridine-4-carboxamide], the IC50 on Jarid1A and against Jarid1B was less than 100 nM throughout.

Turning to `N#CNC(=O)c1ccncc1Nc1nn(CCN2CCC(F)(F)C2)c2ccc(F)cc12` [Example 72, N-cyano-3-({1-[2-(3,3-difluoropyrrolidin-1yl)ethyl]-5-fluoro-1H-indazol-3-yl}amino)pyridine-4-carboxamide], the IC50 against Jarid1A and on Jarid1B was less than 100 nM each time.

Turning to `N#CNC(=O)c1ccncc1Nc1nn(CCN2CCC(F)(F)CC2)c2ccc(F)cc12` [Example 74, N-cyano-3-({1-[2-(4,4-difluoropiperidin-1yl)ethyl]-5-fluoro-1H-indazol-3-yl}amino)pyridine-4-carboxamide], the IC50 at Jarid1A and at Jarid1B was less than 100 nM in each case.

Consider `CC(C)Cn1nc(Nc2cnccc2C(=O)NC#N)c2cc(F)ccc21` [Example 75, N-cyano-3-{[5-fluoro-1-(2-methylpropyl)-1H-indazol-3-yl]amino}pyridine-4-carboxamide], for which the IC50 at Jarid1A and on Jarid1B was less than 100 nM each time.

In the case of `CN(C)CCCCn1nc(Nc2cnccc2C(=O)NC#N)c2cc(F)ccc21` [Example 76, N-cyano-3-({1-[4-(dimethylamino)butyl]-5-fluoro-1H-indazol-3-yl}amino)pyridine-4-carboxamide], the IC50 on Jarid1A and on Jarid1B was less than 100 nM each time.

As for `N#CNC(=O)c1ccncc1Nc1nn(CCN2CCCC2)c2ccc(Cl)cc12` [Example 79, N-cyano-3-({5-chloro-1-[2-(pyrrolidin-1-yl)ethyl]-1H-indazol-3-yl}amino)pyridine-4-carboxamide], the IC50 against Jarid1A and against Jarid1B was less than 100 nM each time.
